This experiment deals with cabbage root fly. Briefly: Swede field trials in Norway, cabbage root fly damage. The class given is in vivo. The procedure: An extensive program of non-public field trials, which included five crops of swede were carried out. The field trials design was based around multiple applications of either ECOguard® liquid (garlic juice concentrate) or granules (wood flour granules impregnated with the garlic juice concentrate) and in four out of the five swede trials was referenced against Dimethoate as a standard.

Turning to `CNC(=O)CSP(=S)(OC)OC` [Dimethoate], the “mean saleable yield (cat 1 + 2)” value (Ga-Fa) was determined as 7.27 kg/sample. Besides, the “mean saleable yield (cat 1 + 2)” value (Mid-Troms) worked out at 5.84 kg/sample. The “mean saleable yield (cat 1 + 2)” value (Sor Ost) is given as 22.16 kg/sample. For the setting “Toten”, the “mean saleable yield (cat 1 + 2)” value was found to be 11.95 kg/sample. Besides, for the setting “in vivo”, the “Difference of Means, trt=1 (control) subtracted” value is −0.3100; the “cabbage root fly damage versus control” value is on record as “significantly reduced damage”; the “root damage index (RDI), % Change” value is −5.8%; the “root damage index (RDI), Mean” value stood at 43.90. Besides, the “mean saleable yield (cat 1 + 2), Mean” value (mean of four sites) worked out at 11.95 kg/sample. For the setting “mean of four sites versus control”, the “mean saleable yield, % Change” value is listed as “+8%”.

The record behind these values is US20080194666A1, “Combination Treatment Methods” (MEDICAL RESEARCH COUNCIL, priority 2005, published 2008).
